Test results as given in PubChem BioAssay AID248 (DTP/NCI, 2004).
Values joined by “and” are separate entries in the source; they are usually repeats but may differ in a detail not shown here. Equal entries are not always repeated. Inconclusive results and toxic doses are left out.

Tested on: L1210 leukemia ip in BDF1 mice, survival T/C
Assay: NCI In Vivo Anticancer Drug Screen. Data for tumor model L1210 Leukemia (intraperitoneal) in B6D2F1 (BDF1) mice
Settings: endpoint: mean survival time, higher = longer survival
In short: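 Survival endpoint. Drug-treated group vs vehicle group, expressed as T divided by C. Tumor passaged by transplantation.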

[1] = dose: 75.0 mg/kg/injection, schedule: Q01DX001 (ip), vehicle: saline
[2] = dose: 150.0 mg/kg/injection, schedule: Q01DX001 (ip), vehicle: saline
[3] = dose: 200.0 mg/kg/injection, schedule: Q01DX009 (ip), vehicle: Klucel (hydroxypropylcellulose) (HPC)
[4] = dose: 100.0 mg/kg/injection, schedule: Q01DX009 (ip), vehicle: Klucel (hydroxypropylcellulose) (HPC)
[5] = dose: 400.0 mg/kg/injection, schedule: Q01DX009 (ip), vehicle: Klucel (hydroxypropylcellulose) (HPC)
[6] = dose: 100.0 mg/kg/injection, schedule: Q01DX001 (ip), vehicle: carboxymethylcellulose (CMC)
[7] = dose: 200.0 mg/kg/injection, schedule: Q01DX001 (ip), vehicle: carboxymethylcellulose (CMC)
[8] = dose: 400.0 mg/kg/injection, schedule: Q01DX001 (ip), vehicle: carboxymethylcellulose (CMC)
[9] = dose: 100.0 mg/kg/injection, schedule: Q04DX003 (ip), vehicle: Klucel (hydroxypropylcellulose) (HPC)
[10] = dose: 200.0 mg/kg/injection, schedule: Q04DX003 (ip), vehicle: Klucel (hydroxypropylcellulose) (HPC)
[11] = dose: 400.0 mg/kg/injection, schedule: Q04DX003 (ip), vehicle: Klucel (hydroxypropylcellulose) (HPC)
[12] = dose: 100.0 mg/kg/injection, schedule: Q01DX009 (ip), vehicle: saline with Tween-80
[13] = dose: 200.0 mg/kg/injection, schedule: Q01DX009 (ip), vehicle: saline with Tween-80
[14] = dose: 400.0 mg/kg/injection, schedule: Q01DX009 (ip), vehicle: saline with Tween-80

NS(=O)(=O)c1cc(Br)c2c(c1)S(=O)(=O)NCN2
T/C (dose: 65.0 mg/kg/injection, schedule: Q01DX009 (ip), vehicle: Klucel (hydroxypropylcellulose) (HPC)): 102 % of control | T/C [1]: 106 % of control | T/C (dose: 135.0 mg/kg/injection, schedule: Q01DX009 (ip), vehicle: Klucel (hydroxypropylcellulose) (HPC)): 88 % of control | T/C [2]: 96 % of control | T/C [3]: 100 % of control | T/C (dose: 300.0 mg/kg/injection, schedule: Q01DX009 (ip), vehicle: Klucel (hydroxypropylcellulose) (HPC)): 97 % of control | T/C (dose: 600.0 mg/kg/injection, schedule: Q01DX009 (ip), vehicle: Klucel (hydroxypropylcellulose) (HPC)): 88 % of control

NC(=O)Nc1cccc2c1-c1ccccc1C2=O
T/C (dose: 100.0 mg/kg/injection, schedule: Q04DX003 (ip), vehicle: acetone): 88 % of control | T/C (dose: 400.0 mg/kg/injection, schedule: Q04DX003 (ip), vehicle: acetone): 100 % of control

CC(Cl)CN(CC(C)Cl)C(=O)Oc1ccc([N+](=O)[O-])cc1 (centres undefined)
T/C [4]: 98 % of control | T/C [3]: 94 % of control | T/C [5]: 98 % of control

COc1ccccc1-c1ccc([N+](=O)[O-])cc1[N+](=O)[O-]
T/C [6]: 100 % of control | T/C [7]: 105 % of control | T/C [8]: 102 % of control

CCCCSc1nc(NCC)nc(NCC)n1
T/C (dose: 100.0 mg/kg/injection, schedule: Q04DX002 (sc), vehicle: olive oil, sesame oil, peanut oil): 102 % of control | T/C (dose: 200.0 mg/kg/injection, schedule: Q04DX002 (sc), vehicle: olive oil, sesame oil, peanut oil): 105 % of control | T/C (dose: 400.0 mg/kg/injection, schedule: Q04DX002 (sc), vehicle: olive oil, sesame oil, peanut oil): 115 % of control

O=C(COc1ccc(Cl)c(Cl)c1)Nc1ccc[n+](Cc2ccc(Cl)c(Cl)c2)c1
T/C [9]: 90 % of control | T/C [10]: 97 % of control | T/C [11]: 104 % of control

Cc1ccc(C(=O)OCC2OC3OC(C)(C)OC3C2OC(=O)c2ccc(C)cc2)cc1 (centres undefined)
T/C [6]: 90 % of control | T/C [7]: 104 % of control | T/C [8]: 101 % of control

CCN(CC)C(=O)C1CCC(CCc2c[nH]c3ccccc23)NC1 (centres undefined)
T/C (dose: 100.0 mg/kg/injection, schedule: Q01DX001 (ip), vehicle: saline): 94 % of control

CN(C)Cc1cc(C(C)(C)C)cc(C2CCCCC2)c1O
T/C [12]: 100 % of control | T/C [13]: 94 % of control | T/C [14]: 107 % of control

O=C(O)c1cc(=O)[nH]c(=O)[nH]1
T/C (dose: 100.0 mg/kg/injection, schedule: Q04DX002 (ip), vehicle: Klucel (hydroxypropylcellulose) (HPC)): 100 % of control

CCC(=O)OC1CC2C3CCC4=CC(=O)CCC4(C)C3CCC2(C)C1OC(=O)CC (centres undefined)
T/C [4]: 98 % of control | T/C [9]: 95 % of control | T/C [3]: 98 % of control | T/C [10]: 95 % of control | T/C [5]: 97 % of control | T/C [11]: 101 % of control

Cc1[nH]nc(C(N)=O)c1N=NN(C)C
T/C (dose: 12.5 mg/kg/injection, schedule: Q01DX009 (ip), vehicle: saline): 108 % of control | T/C (dose: 25.0 mg/kg/injection, schedule: Q01DX001 (ip), vehicle: saline): 121 % of control | T/C (dose: 25.0 mg/kg/injection, schedule: Q01DX009 (ip), vehicle: saline): 124 % of control | T/C (dose: 50.0 mg/kg/injection, schedule: Q01DX009 (ip), vehicle: saline): 183 % of control | T/C [1]: 112 % of control and 124 % of control | T/C (dose: 75.0 mg/kg/injection, schedule: Q01DX009 (ip), vehicle: saline): 204 % of control | T/C [2]: 104 % of control and 216 % of control | T/C (dose: 150.0 mg/kg/injection, schedule: Q01DX009 (ip), vehicle: saline): 186 % of control

Cc1ccc2ccccc2c1NS(=O)(=O)c1ccccc1
T/C (dose: 100.0 mg/kg/injection, schedule: Q01DX001 (ip), vehicle: saline sonified): 95 % of control | T/C [12]: 90 % of control | T/C (dose: 200.0 mg/kg/injection, schedule: Q01DX001 (ip), vehicle: saline sonified): 95 % of control | T/C [13]: 90 % of control | T/C (dose: 400.0 mg/kg/injection, schedule: Q01DX001 (ip), vehicle: saline sonified): 97 % of control | T/C [14]: 88 % of control
